According to PMC8772941 (Biomedicines, 2021):
Like-named read-outs stand apart in the source and are kept apart here. Marks after values point to notes of the source that are not given here.

How the values were obtained:
WT D2R [1] = test system: WT D2R; set-up: method as in PMID 29325769; settings: log values from pERK assay; cited from earlier work
D2R V91A = test system: D2R V91A; set-up: method as in PMID 29325769; settings: log values from pERK assay; cited from earlier work
D2R L94A = test system: D2R L94A; set-up: method as in PMID 29325769; settings: log values from pERK assay; cited from earlier work
D2R E95A = test system: D2R E95A; set-up: method as in PMID 29325769; settings: log values from pERK assay; cited from earlier work
D2R S194A = test system: D2R S194A; set-up: method as in PMID 29325769; settings: log values from pERK assay; cited from earlier work
WT D2R [2] = test system: WT D2R; set-up: method as in PMID 29325769; settings: log value from radioligand binding; cited from earlier work
D2R S193A = test system: D2R S193A; set-up: method as in PMID 29325769; settings: log value from radioligand binding; cited from earlier work
D2R = settings: in the presence of µM concentrations of DA; pre-incubation protocols; cited from earlier work
GIRK1/4 = target: T1, GIRK1/4 (Homo sapiens, UniProt P48544+P48549); test: Control: direct inhibition of GIRK currents in oocytes expressing GIRK1/4 in the absence of the D2R
T1 sequence (P48549 1-501): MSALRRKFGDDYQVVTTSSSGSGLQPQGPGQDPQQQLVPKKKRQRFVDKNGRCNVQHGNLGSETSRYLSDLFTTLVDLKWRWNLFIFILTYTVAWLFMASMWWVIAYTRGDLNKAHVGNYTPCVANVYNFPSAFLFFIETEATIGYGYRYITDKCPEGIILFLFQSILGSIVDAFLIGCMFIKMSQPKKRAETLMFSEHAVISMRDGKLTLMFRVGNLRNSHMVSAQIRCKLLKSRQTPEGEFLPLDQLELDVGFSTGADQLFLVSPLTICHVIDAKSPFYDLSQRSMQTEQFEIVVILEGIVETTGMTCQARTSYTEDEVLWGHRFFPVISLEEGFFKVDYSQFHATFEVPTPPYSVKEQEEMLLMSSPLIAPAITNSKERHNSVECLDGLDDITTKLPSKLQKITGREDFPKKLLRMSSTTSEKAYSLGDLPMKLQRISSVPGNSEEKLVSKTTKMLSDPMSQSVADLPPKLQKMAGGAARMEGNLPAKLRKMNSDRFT
T1 sequence (P48544 1-419): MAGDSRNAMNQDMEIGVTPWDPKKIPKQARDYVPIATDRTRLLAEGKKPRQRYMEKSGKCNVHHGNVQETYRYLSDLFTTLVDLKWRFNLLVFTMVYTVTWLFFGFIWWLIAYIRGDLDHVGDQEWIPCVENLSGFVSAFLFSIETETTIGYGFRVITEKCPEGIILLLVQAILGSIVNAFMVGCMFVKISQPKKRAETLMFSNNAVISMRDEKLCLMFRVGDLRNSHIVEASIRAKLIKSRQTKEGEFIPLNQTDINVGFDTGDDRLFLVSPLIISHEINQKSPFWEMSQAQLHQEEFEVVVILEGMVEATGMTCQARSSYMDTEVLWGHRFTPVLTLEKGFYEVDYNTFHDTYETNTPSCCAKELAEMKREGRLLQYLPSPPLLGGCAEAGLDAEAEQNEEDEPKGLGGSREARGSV
Procedure: Plasmids were linearized using the appropriate restriction enzymes (D2R, RGS4; XhoI and GIRK1/GIRK4; NotI), followed by in vitro transcription using the T7 mMessage mMachine kit (Ambion, Austin, TX, USA). cRNA concentration and purity were determined by spectrophotometry.
Following RNA injection and 6 days of incubation at 12 °C, electrophysiological experiments were performed on the oocytes using the parallel eight-channel, semi-automated, two-electrode voltage-clamp OpusXpress 6000A (Molecular Devices, San José, CA) [13, 14]. Continuous perfusion, mediated by Minipuls 3 peristaltic pumps (Gilson, Middleton, WI, USA), was maintained at 0.5 mL/min. Data were acquired at a membrane potential of −80 mV and sampled at 156 Hz using OpusXpress 1.10.42 (Molecular Devices) software. To increase the inward-rectifier potassium channel current at negative potentials, a high potassium concentration extracellular perfusion fluid was used (64 mM NaCl, 25 mM KCl, 0.8 mM MgCl2, 0.4 mM CaCl2, 15 mM HEPES, 1 mM ascorbic acid, adjusted to pH 7.4 with NaOH), yielding a K^+ reversal potential of about −40 mV.

N#Cc1ccc2c(c1)CN(CC[C@H]1CC[C@H](NC(=O)c3cc4ccccc4[nH]3)CC1)CC2 [SB269,652, N-((trans)-4-(2-(7-cyano-3,4-dihydroisoquinolin-2(1H)-yl)ethyl)cyclohexyl)-1H-indole-2-carboxamide]
Negative Cooperativity of SB269,652 Interaction with DA (WT D2R [1]): 1.23 ± 0.14 | Negative Cooperativity of SB269,652 Interaction with DA (D2R V91A): ↓ 0.48 ± 0.16 | Negative Cooperativity of SB269,652 Interaction with DA (D2R L94A): ↓ 0.70 ± 0.08 | Negative Cooperativity of SB269,652 Interaction with DA (D2R E95A): ↓ 0.32 ± 0.14 | Negative Cooperativity of SB269,652 Interaction with DA (D2R S194A): ↓ 0.52 ± 0.09 | Negative Cooperativity of SB269,652 Interaction with DA (WT D2R [2]): 0.54 ± 0.11 | Negative Cooperativity of SB269,652 Interaction with DA (D2R S193A): ↑ (1.47 ± 0.15 *) ^b | SB269,652 IC50 at the D2R in previous reports (D2R): high nM range | Ligand-mediated direct inhibition of GIRK currents (>10%) (GIRK1/4): not observed
